Data on 4 compounds can be found in EP0017102A1, “Composition containing a phenyl benzoic acid compound and acetaminophen combination for the treatment of pain and inflammation and process for preparing the same” (Merck & Co., Inc., priority 1979, dated 1980).

Where “and” joins values, the source holds several entries; their conditions need not be identical. Equal entries are not always repeated.

Data set [1] relates to adjuvant arthritis induced in rats. Particulars: compounds known to be clinically active; cited from earlier work.
Data set [2] is described as follows: in vivo. Particulars: mouse, in vivo, po. It counts as in vivo, mice. How it is done:
(§1) Measurements of the relative safety of the components and of the combination were carried out using acute oral toxicity studies in female mice. Randomly selected female albino mice (Carworth CF-1) weighing from 18 to 24 grams, and 6 to 7 weeks old, were used. The LD50 value for each drug was estimated from acute oral dose-response curves previously established. The following dose regimen was utilized:
(§2) The preparations were administered by gastric intubation using a metal catheter attached to a springe. The various doses were administered randomly with 20 mice per group. Food was withheld one to two hours before and three hours following drug treatment. Water was available at all times. […] Body weights were taken pretest and on days 7 and 14.

Data set [3] relates to female albino mice (Carworth CF-1). Briefly: in vivo. The class given is in vivo. As to conditions: Group V: Acetaminophen 1500 mg./kg. (100 %LD50) alone; oral; 20 tested; 14 days. The procedure: as §1, §2
Data set [4] relates to adjuvant arthritis induced in rats. Briefly: adjuvant arthritis analgesic bioassay (tail pinch / foot bend squeak response). It counts as in vivo, Sprague-Dawley rats. The source says: Since analgesic tests using intact animals are not sensitive enough to detect the analgesic activity of nonsteroidal anti-inflammatory compounds, the analgesic bioassay employed utilized inflammatory sensitization procedures, specifically adjuvant arthritis. Adjuvant arthritis induced in rats, the animals used in the bioassay, resembles rheumatoid arthritis in man with respect to the manifestation of inflammation and hyperalgesia. When the affected joints of rats with adjuvant arthritis are subjected to a gentle manipulation, preferably by extending the joint, the rats respond by squeaking, which is a definite and reproducible sign of algesia. The ability of the tested compounds to suppress this squeaking response was an accurate measure of the analgesic activity of the tested compounds.
In accordance with the adjuvant arthritis bioassay used to evaluate the analgesic activity of the combinations of compounds of the present invention, young adult Sprague-Dawley rats of either sex are rendered hyperalgesic by injection of dessicated Mycobacterium- butyricum suspended in light mineral oil (Freund's adjuvant). The mycobacteria are ground in a mortar, suspended in the oil, and sterilized in an autoclave. Each animal receives 0.5 mg of the bacteria in 0.1 ml of oil, injected subcutaneously through a 21-gauge needle into the distal third of the tail.
The animals can subsequently be used in two ways for testing the analgesic action of drugs. The day after the injection of adjuvant, the tail is found to be sensitive to touch. Approximately 16 hours after the injection, the experimenter tests the animals for the presence of hyperalgesia. This is done by holding the animal in one hand. With the thumb and forefinger of the other hand, the observer applies gentle pressure to the tail about 2.5 cm proximal to the point where the needle has been inserted. This gentle pressure is repeated at 5-sec intervals. If the rat endures five such gentle presses without emitting more than one "squeak", analgesia is considered to be present and a score of + is assigned. Two or more squeaks earns a rating of 0, or no analgesia. Before being assigned to an experiment, animals are screened and only those with the 0 rating are used.
The hyperalgesic animals are assigned randomly to drug treatments and one of the treatments is always the vehicle without the drug (placebo group). […] […] This entire procedure may be referred to as "tail pinch" .technique. Alternatively, an apparatus for applying pressure to the tail may be employed and the "squeak threshold" determined before and after drug.
The adjuvant-injected animals, if left undisturbed, develop severe arthritis which becomes especially manifest in about two weeks. […] This "foot bend" technique yields drug responses essentially identical with those obtained by the "tail pinch" procedure.
For a further description of this bioassay and its significance, reference is made to Kuzuma and Kawai, "Evaluation of Analgesic Agents in Rats with Adjuvant Arthritis", Chem. Pharm. Bull., 23 (6) 1184-1191 (1975).

In the case of `COc1ccc2c(c1)c(CC(=O)O)c(C)n2C(=O)c1ccc(Cl)cc1` [indomethacin], the “results in the adjuvant arthritis analgesic bioassay” value (“results” for short) in data set [1] is “positive, dose-dependent, reproducible results”.

As for `CC(=O)Nc1ccc(O)cc1` [APAP, acetaminophen], the LD50 (in general, the dose at which mortality reaches 50%) in data set [2] amounted to 1500 mg/kg. In addition, in data set [3], the “No. Dead” value came to 16. The “Number of Rats with Analgesia” value in data set [4] (1/2 h after administration, dose 200 mg./kg., 8 rats per dose) is 2; in data set [4] (1 h after administration, dose 25 mg./kg., 10 rats per dose), 1; in data set [4] (1 h after administration, dose 50 mg./kg., 10 rats per dose), 1; in data set [4] (1 h after administration, dose 100 mg./kg., 10 rats per dose) it was 3; in data set [4] (1 h after administration, dose 200 mg./kg., 8 rats per dose), 2 and 3; in data set [4] (1 h after administration, dose 400 mg./kg., 8 rats per dose), 6 and 4. Also, the “Number of Rats with Analgesia” value in data set [4] (2 h after administration, dose 25 mg./kg., 10 rats per dose) is 0; in data set [4] (2 h after administration, dose 50 mg./kg., 10 rats per dose), 0; in data set [4] (2 h after administration, dose 100 mg./kg., 8 rats per dose), 1; in data set [4] (2 h after administration, dose 100 mg./kg., 10 rats per dose) it was 2; in data set [4] (2 h after administration, dose 200 mg./kg., 8 rats per dose), 4 and 3; in data set [4] (2 h after administration, dose 400 mg./kg., 8 rats per dose), 7. In addition, the “Number of Rats with Analgesia” value in data set [4] (3 h after administration, dose 25 mg./kg., 10 rats per dose) was 0; in data set [4] (3 h after administration, dose 50 mg./kg., 10 rats per dose), 0; in data set [4] (3 h after administration, dose 100 mg./kg., 10 rats per dose) it was 0; in data set [4] (3 h after administration, dose 200 mg./kg., 8 rats per dose), 4; in data set [4] (3 h after administration, dose 400 mg./kg., 8 rats per dose), 6; in data set [4] (4 h after administration, dose 25 mg./kg., 10 rats per dose), 0. Also, the “Number of Rats with Analgesia” value is 0 in data set [4] (4 h after administration, dose 50 mg./kg., 10 rats per dose); 0 in data set [4] (4 h after administration, dose 100 mg./kg., 8 rats per dose); 0 in data set [4] (4 h after administration, dose 100 mg./kg., 10 rats per dose); 4 in data set [4] (4 h after administration, dose 200 mg./kg., 8 rats per dose); 5 and 4 in data set [4] (4 h after administration, dose 400 mg./kg., 8 rats per dose); 0 in data set [4] (5 h after administration, dose 25 mg./kg., 10 rats per dose). Also, the “Number of Rats with Analgesia” value in data set [4] (5 h after administration, dose 50 mg./kg., 10 rats per dose) is 0; in data set [4] (5 h after administration, dose 100 mg./kg., 8 rats per dose), 0; in data set [4] (5 h after administration, dose 100 mg./kg., 10 rats per dose), 0; in data set [4] (5 h after administration, dose 200 mg./kg., 8 rats per dose), 2 and 1; in data set [4] (5 h after administration, dose 400 mg./kg., 8 rats per dose) it was 2 and 3; in data set [4] (6 h after administration, dose 25 mg./kg., 10 rats per dose) it was 0. Further, the “Number of Rats with Analgesia” value in data set [4] (6 h after administration, dose 50 mg./kg., 10 rats per dose) came to 0; in data set [4] (6 h after administration, dose 100 mg./kg., 8 rats per dose) it was 0; in data set [4] (6 h after administration, dose 100 mg./kg., 10 rats per dose), 0; in data set [4] (6 h after administration, dose 400 mg./kg., 8 rats per dose) it was 1. Moreover, the “Percent of Rats with Analgesia APAP Alone” value in data set [4] (1 Hrs. after drug, APAP 25 mg./kg., 10 rats per dose) is 10%; in data set [4] (1 Hrs. after drug, APAP 200 mg./kg., 8 rats per dose), 25% and 37.5%; in data set [4] (2 Hrs. after drug, APAP 50 mg./kg., 10 rats per dose) it was 0%; in data set [4] (3 Hrs. after drug, APAP 100 mg./kg., 8 rats per dose), 0%; in data set [4] (3 Hrs. after drug, APAP 100 mg./kg., 10 rats per dose), 0%; in data set [4] (4 Hrs. after drug, APAP 25 mg./kg., 10 rats per dose) it was 0%. Further, the “Percent of Rats with Analgesia APAP Alone” value in data set [4] (4 Hrs. after drug, APAP 50 mg./kg., 10 rats per dose) was 0%; in data set [4] (4 Hrs. after drug, APAP 100 mg./kg., 8 rats per dose) it was 0%; in data set [4] (4 Hrs. after drug, APAP 100 mg./kg., 10 rats per dose) it was 0%; in data set [4] (5 Hrs. after drug, APAP 100 mg./kg., 8 rats per dose) it was 0%; in data set [4] (5 Hrs. after drug, APAP 200 mg./kg., 8 rats per dose) it was 25%. The “Total Positives” value in data set [4] (sum over 1/2, 1 and 2 h, dose 200 mg./kg., 8 rats per dose) turned out to be 7; in data set [4] (sum over 1 and 2 h, dose 100 mg./kg., 10 rats per dose) it was 5.

Turning to `CC(=O)Oc1ccccc1C(=O)O` [aspirin], in data set [1], the “results” value is listed as “positive, dose-dependent, reproducible results”.

For the compound `CC(C)Cc1ccc(CC(=O)O)cc1` [ibufenac], the “results” value in data set [1] is given as “positive, dose-dependent, reproducible results”.
